Assay results: US4536571A, “Selenium-containing platinum compound” (priority 1983, dated 1985)

Columns and labels:
[1] = LD50 of Selenium Compounds; details: mouse, in vivo, ip; intraperitoneal route, BDF1 male mice
Procedure: Our studies were carried out in BDF1 male mice weighing approximately 25 grams. All solutions were freshly were daily and given by the intraperitoneal route.

[2] = tested on: Cisplatin induced nephrotoxicity (blood urea nitrogen); experiment: BUN determination in Cisplatin-treated mice, sodium selenite time course (Table 1); type: in vivo, BDF1 mice
Procedure: (§1) BUN of the mice which have been administered a platinum complex increases due to the platinum poisoning in the kidney. […] The method of negating platinum toxicity of the present invention will be illustrated in more detail by way of Examples later.
(§2) Sodium selenite was administered to the peritoneal cavities of the mice at a dosage of 6.3 mg/kg. […] BUN of the mice was determined on the fourth day from the date of the administration. […] BUN of these control groups was also determined.
*^1 Average BUN value of mice which was determined on the fourth day
*^3 The figure in parentheses means the number of dead mice.

[3] = tested on: Cisplatin induced nephrotoxicity (blood urea nitrogen); experiment: BUN determination in Cisplatin-treated mice, sodium selenite time course (Table 2); type: in vivo, BDF1 mice; details: for number of dead mice: fourth day
Procedure: as §1, §2

[4] = tested on: Cisplatin induced nephrotoxicity (blood urea nitrogen); experiment: BUN determination in Cisplatin-treated mice, sodium selenite dose series (Table 3); type: in vivo, BDF1 mice
Procedure: as §1
BUN of the mice was dertermined on the fourth day from the date of administration and on the eleventh day from the date of the administration. […] BUN of these control groups was also determined.

[5] = tested on: cadmium toxicity; details: in vivo; cited from earlier work
[6] = tested on: nephrotoxic effects of Cisplatin; details: female rats; 750 mg/kg intraperitoneally or 100 mg/kg intravenously; cited from earlier work
[7] = sodium selenite 6.3 mg/kg i.p. 2 hours before Cisplatin 14 mg/kg i.p.
[8] = sodium selenite 6.3 mg/kg i.p. 4 hours before Cisplatin 14 mg/kg i.p.
[9] = sodium selenite 6.3 mg/kg i.p. simultaneously with Cisplatin 14 mg/kg i.p.
[10] = sodium selenite 6.3 mg/kg i.p. 3 hours before Cisplatin 14 mg/kg i.p.
[11] = sodium selenite 6.3 mg/kg i.p. 6 hours before Cisplatin 14 mg/kg i.p.
[12] = sodium selenite 1 mg/kg i.p. 2 hours before Cisplatin 14 mg/kg i.p.
[13] = sodium selenite 2 mg/kg i.p. 2 hours before Cisplatin 14 mg/kg i.p.
[14] = sodium selenite 4 mg/kg i.p. 2 hours before Cisplatin 14 mg/kg i.p.
[15] = sodium selenite 6 mg/kg i.p. 2 hours before Cisplatin 14 mg/kg i.p.
[16] = sodium selenite 8 mg/kg i.p. 2 hours before Cisplatin 14 mg/kg i.p.

Question: Which results are given for `O=[Se](O)O` [Sodium selenite, sodium selenite]?
Answer: LD50 [1]: 3.25 to 3.5 mg/kg; number of dead mice ([2]; fourth day, sodium selenite 6.3 mg/kg i.p. 2 hours before Cisplatin 14 mg/kg i.p.): 2; BUN (≥30) on the fourth day, mice ([2]; sodium selenite 6.3 mg/kg i.p. 1 hour after Cisplatin 14 mg/kg i.p.): 5/5; BUN (≥30) on the fourth day, mice [2, 7]: 1/3; BUN (≥30) on the fourth day, mice [2, 8]: 4/5; BUN (≥30) on the fourth day, mice [2, 9]: 2/5; BUN (≥30) on the fourth day, mice ([2]; sodium selenite 6.3 mg/kg only, i.p.): 0/5; number of dead mice [3, 10]: 1; number of dead mice [3, 8]: 1; number of dead mice [3, 11]: 1; number of dead mice [3, 9]: 1; BUN (≥30) on the fourth day, mice ([3]; sodium selenite 6.3 mg/kg i.p. 1 hour before Cisplatin 14 mg/kg i.p.): 3/5; BUN (≥30) on the fourth day, mice [3, 7]: 1/5; BUN (≥30) on the fourth day, mice [3, 10]: 1/4; BUN (≥30) on the fourth day, mice [3, 8]: 2/4; BUN (≥30) on the fourth day, mice [3, 11]: 2/4; BUN (≥30) on the fourth day, mice [3, 9]: 2/4; number of dead mice ([4]; eleventh day, sodium selenite 2 mg/kg i.p. 2 hours before Cisplatin 14 mg/kg i.p.): 1; number of dead mice ([4]; eleventh day, sodium selenite 4 mg/kg i.p. 2 hours before Cisplatin 14 mg/kg i.p.): 2; number of dead mice ([4]; eleventh day, sodium selenite 6 mg/kg i.p. 2 hours before Cisplatin 14 mg/kg i.p.): 1; number of dead mice ([4]; eleventh day, sodium selenite 8 mg/kg i.p. 2 hours before Cisplatin 14 mg/kg i.p.): 1; number of dead mice ([4]; fourth day, sodium selenite 4 mg/kg i.p. 2 hours before Cisplatin 14 mg/kg i.p.): 1; number of dead mice ([4]; fourth day, sodium selenite 8 mg/kg i.p. 2 hours before Cisplatin 14 mg/kg i.p.): 1; BUN (≥30) on the eleventh day, mice [4, 12]: 1/5; BUN (≥30) on the fourth day, mice [4, 12]: 3/5; BUN (≥30) on the eleventh day, mice [4, 13]: 0/4; BUN (≥30) on the fourth day, mice [4, 13]: 1/5; BUN (≥30) on the eleventh day, mice [4, 14]: 0/3; BUN (≥30) on the fourth day, mice [4, 14]: 1/4; BUN (≥30) on the eleventh day, mice [4, 15]: 0/4; BUN (≥30) on the fourth day, mice [4, 15]: 1/5; BUN (≥30) on the eleventh day, mice [4, 16]: 0/4; BUN (≥30) on the fourth day, mice [4, 16]: 1/4

Question: For `[Se]` [selenium], which “cadmium induced testicular damage” value [5] is on record?
Answer: prevents

Question: Which LD50 [1] does the source give for `N[C@@H](C[Se][Se]C[C@H](N)C(=O)O)C(=O)O` [selenocystine] here?
Answer: 4 mg/kg

Question: For `CCN(CC)C(=S)[S-].[Na+]` [sodium diethyldithiocarbamate], which “nephrotoxic effects of Cisplatin” value [6] is on record?
Answer: effectively inhibited

Question: With `O=[Se](=O)(O)O` [sodium selenate] as the compound, how does the LD50 [1] read?
Answer: 5.25 to 5.75 mg/kg
